This assay concerns HOS-FRα tumor-bearing mice. As to the kind of experiment: Toxicity and CRS rescue with sodium fluorescein. The assay is classed as in vivo. To be noted: sodium fluorescein i.v. ~95 mg/kg, severe CRS, 35 million total CAR-T cells (93:7 CD4/CD8), plasma 6 h later. The method, then: Depending on the CAR-T cell dose and how EC17 is administered, tumor-bearing mice receiving FITC-specific CAR-T cells can experience severe CRS and varying degrees of body weight loss ([27], [33], [34]). Therefore, we developed a CRS grading system (0–5 scale) to empirically assess CRS toxicity from animals' gross morphology and social behavior to allow for better timing of CRS rescue. While grades 0 and 5 indicated normal (no CRS) or death (due to severe CRS), respectively, grades 1, 2, and 3–4 were considered mild, light-to-moderate, and severe CRS. In addition, all EC17 doses were intentionally given toward the end of any given day to allow potential CRS symptoms to develop overnight. On the days immediately following each EC17 dose, animals were scored and rescue agents such as sodium fluorescein, folic acid and leucovorin were used to mitigate CRS toxicity ([33]). In this particular instance, a batch of E2-CAR-T cells with a high EGFRt+ CD4/CD8 ratio (~93:7) was given to HOS-FRα tumor-bearing mice at a mixture of ~2.5 million CD8 and ~33 million CD4 on day 0. When EC17 was dosed, respectively, at 500, 100, and 500 nmol/kg on days 3, 10, and 12, low CRS (grades 1–2) was noted on days 4 and 11 but high CRS (grade 3) was noted on day 13. To mitigate the severe CRS toxicity, sodium fluorescein was intravenously administrated at ~96 mg/kg in the morning of day 13 and mouse plasma samples were collected 6 h later for analysis of CRS-associated cytokines.

`O=C([O-])c1ccccc1-c1c2ccc(=O)cc-2oc2cc([O-])ccc12.[Na+].[Na+]` [sodium fluorescein, reference compound]: the “CAR-T cell derived human cytokines after CRS rescue” value is given as “acted very quickly to reduce CAR-T cell derived human cytokines”.

(Values after publication PMC6433934, “Preclinical Evaluation of Bispecific Adaptor Molecule Controlled Folate Receptor CAR-T Cell Therapy With Special Focus on Pediatric Malignancies” (Frontiers in Oncology, 2019).)
